From ChEMBL document CHEMBL4308875, “Synthesis, antituberculosis studies and biological evaluation of new quinoline derivatives carrying 1,2,4-oxadiazole moiety” (Bioorg Med Chem Lett, 2019)
In brackets after ≈: the same amount, converted by molar mass.

How the values were obtained:
Type in all cases: functional
Details in all cases: 168 h
[1] = test system: Mycobacterium tuberculosis; assay: Antitubercular activity against moxifloxacin-resistant Mycobacterium tuberculosis after 7 days by resazurin dye based colorimetric assay
[2] = test system: Mycobacterium tuberculosis; assay: Antitubercular activity against rifampicin-resistant Mycobacterium tuberculosis after 7 days by resazurin dye based colorimetric assay
[3] = test system: Mycobacterium tuberculosis; assay: Antitubercular activity against d-cycloserine-resistant Mycobacterium tuberculosis after 7 days by resazurin dye based colorimetric assay
[4] = test system: Mycobacterium tuberculosis; assay: Antitubercular activity against streptomycin-resistant Mycobacterium tuberculosis after 7 days by resazurin dye based colorimetric assay
[5] = test system: Mycobacterium tuberculosis; assay: Antitubercular activity against isoniazid-resistant Mycobacterium tuberculosis after 7 days by resazurin dye based colorimetric assay
[6] = test system: Mycobacterium tuberculosis; assay: Antitubercular activity against kanamycin-resistant Mycobacterium tuberculosis after 7 days by resazurin dye based colorimetric assay

Structure (SMILES)	MIC [1]	MIC [2]	MIC [3]	MIC [4]	MIC [5]	MIC [6]
CC(C)c1ccc(-c2nc(CN3CCN(c4ccnc5cc(Cl)ccc45)CC3)no2)cc1	4.01 µg/mL (≈ 8.95 µM)	3.81 µg/mL (≈ 8.51 µM)	3.68 µg/mL (≈ 8.21 µM)	28.6 µg/mL (≈ 63.8 µM)	4.17 µg/mL (≈ 9.31 µM)	3.24 µg/mL (≈ 7.23 µM)
NNC(=O)c1ccncc1 [ISONIAZID]	0.49 µg/mL (≈ 3.57 µM)	0.49 µg/mL (≈ 3.57 µM)	3.78 µg/mL (≈ 27.6 µM)	1 µg/mL (≈ 7.29 µM)	> 8 µg/mL	0.49 µg/mL (≈ 3.57 µM)
CC(=O)NC[C@H]1CN(c2ccc(N3CCOCC3)c(F)c2)C(=O)O1 [LINEZOLID]	3.65 µg/mL (≈ 10.8 µM)	1.68 µg/mL (≈ 4.98 µM)	10.3 µg/mL (≈ 30.7 µM)	14.1 µg/mL (≈ 41.7 µM)	2.33 µg/mL (≈ 6.91 µM)	1.91 µg/mL (≈ 5.66 µM)
COc1c(N2C[C@@H]3CCCN[C@@H]3C2)c(F)cc2c(=O)c(C(=O)O)cn(C3CC3)c12 [MOXIFLOXACIN]	> 16 µg/mL	0.42 µg/mL (≈ 1.05 µM)	0.46 µg/mL (≈ 1.15 µM)	0.94 µg/mL (≈ 2.34 µM)	0.49 µg/mL (≈ 1.22 µM)	0.21 µg/mL (≈ 0.523 µM)
CO[C@H]1/C=C/O[C@@]2(C)Oc3c(C)c(O)c4c(O)c(c(/C=N/N5CCN(C)CC5)c(O)c4c3C2=O)NC(=O)/C(C)=C\C=C\[C@H](C)[C@H](O)[C@@H](C)[C@@H](O)[C@@H](C)[C@H](OC(C)=O)[C@@H]1C [RIFAMPIN]	0.23 µg/mL (≈ 0.279 µM)	> 4 µg/mL	< 0.02 µg/mL	0.05 µg/mL (≈ 0.0608 µM)	< 0.02 µg/mL	< 0.02 µg/mL
